# System: neutrophils
# Experiment: Neutrophil calcium flux assay (5-OXO-ETE-stimulated, Indo-1 fluorescence)
# Type: cell-based
# Conditions: 5-OXO-ETE-stimulated calcium flux
# Experimental: After isolation, neutrophils were resuspended in PBS without calcium and Magnesium (PBS −/−) at a concentration of 5×10^6 cells/ml. 2ul of Indo-1 (1 mM) were added per ml of cells. After incubation at 37° C. for 30 minutes, cells were washed twice in PBS −/− and resuspended at 5×10^6 cells/ml in assay buffer (HBSS 1× with calcium and magnesium and […]). In a 96-well Black optical clear bottom plate 100 μL of neutrophil were dispensed to each well. After incubation at 37° C. for 5 minutes, 50 μL of assay buffer or 3× antagonist were added and incubated for 5 min in a Tecan Spark plate reader (Tecan, Morrisville, NC). Baseline was measured for 30 sec (wavelength setup: excitation: 331 nm and emission:410 nm). When baseline is stable, 50p of 5-OXO-ETE at 200 nM (4×) or HBSS was added to appropriate wells. Fluorescence was measured every 5 seconds for 30 cycles. Results are expressed as Net fluorescence (FLU minus Background and injection peak). All data were analyzed using GraphPad Prism version 9 for Windows (GraphPad, San Diego, CA).
row,Compound,IC50 [nM]
1,"CC(CC(=O)O)CC(=O)c1c(CCCCCC(O)c2cccc(C(=O)N(C)C)c2)n(C)c2ncc(C#N)cc12 (single isomer, unassigned) [Compound I-318]",100 to 300

# Same assay, conditions: Neutrophil, 5-OXO-ETE-stimulated calcium flux
row,Compound,IC50 [nM]
1,C[C@H](CC(=O)O)CC(=O)c1c(CCCCOCc2cccc(C#N)c2)n(C)c2ncc(F)cc12 [Compound I-416],100 to 300
2,C[C@H](CC(=O)O)CC(=O)c1c(CCCCCOCC#CC2CC(F)(F)C2)n(C)c2ccc(Cl)cc12 [Compound I-337],< 100
3,C[C@H](CC(=O)O)CC(=O)c1c(CCCCCCC#CC2CC(F)(F)C2)n(C)c2ccc(Cl)cc12 [Compound I-319],< 100
4,C[C@H](CC(=O)O)CC(=O)c1c(CCCCOCc2cccc(C#N)c2)n(C)c2ccncc12 [Compound I-396],< 100
5,C[C@H](CC(=O)N[C@@H](Cc1ccccc1)C(=O)O)CC(=O)c1c(CCCCOCc2ccccc2)n(C)c2ncc(C#N)cc12 [Compound I-467],> 300
6,Cn1c(CCCCCCC#CC2CC(F)(F)C2)c(C(=O)N2CC[C@H](C(=O)N[C@@H](CCC(N)=O)C(=O)O)C2)c2cc(C#N)cnc21 [Compound I-463],> 300
7,C[C@H](CC(=O)O)CC(=O)c1c(CCCCOCC2(C(F)(F)F)CC2)n(C)c2ccc(Cl)cc12 [Compound I-74],> 300
8,CC(CC(=O)O)CC(=O)c1c(CCCCCCC#CC2CC(F)(F)C2)n(C)c2ccc(Cl)cc12 (centres unmarked) [Compound I-278],< 100
9,C[C@H](CC(=O)O)NC(=O)c1c(CCCCCCc2cccc(Cl)c2)n(C)c2ccc(Cl)cc12 [Compound I-237],> 300
10,Cn1c(CCCCCCC#CC2CC(F)(F)C2)c(C(=O)N2CC[C@H](C(=O)O)C2)c2cc(Br)cnc21 [Compound I-345],100 to 300
11,C[C@H](CC(=O)O)CC(=O)c1c(CCCCCCC#CC2CC(F)(F)C2)[nH]c2ccc(Cl)cc12 [Compound I-323],< 100
12,C[C@H](CC(=O)O)CC(=O)c1c(CCCCCCc2cccc(Cl)c2)[nH]c2ccc(Cl)cc12 [Compound I-144],< 100
13,CC(CNC(=O)c1c(CCCCOCc2cccc(Cl)c2)n(C)c2ncc(C(N)=O)cc12)C(=O)O (centres unmarked) [Compound I-287],> 300
14,Cn1c(CCCCCCc2cccc(Cl)c2)c(C(=O)N2CCC(C)(C(=O)O)C2)c2cc(Cl)ccc21 (centres unmarked) [Compound I-157],> 300
15,C[C@@H](CC(=O)O)CC(=O)c1c(CCCCO[C@@H](C)c2ccccc2)n(C)c2ncc(C#N)cc12 [Compound I-431],> 300
16,C[C@H](CC(=O)O)CC(=O)c1c(CCCCOCc2cccc(C#N)c2)n(C)c2nc(F)c(Cl)cc12 [Compound I-418],< 100
17,C[C@@H](CC(=O)O)CC(=O)c1c(CCCCOCc2cccc(F)c2)n(C)c2ncc(C#N)cc12 [Compound I-294],> 300
18,Cn1c(CCCCCCCC#CC2CC(F)(F)C2)c(C(=O)N2CC[C@H](C(=O)O)C2)c2cc(Br)cnc21 [Compound I-350],> 300
19,C[C@@H](CC(=O)O)CC(=O)c1c(CCCCOCc2ccc(F)cc2)n(C)c2ncc(Cl)cc12 [Compound I-216],> 300
20,CC(CC(=O)O)CC(=O)c1c(CCCCOCc2cccc(Cl)c2)n(CCO)c2ncc(Cl)cc12 (centres unmarked) [Compound I-378],> 300
21,C[C@H](CC(=O)O)CC(=O)c1c(CCCCCNc2ccccn2)n(C)c2ccc(Cl)cc12 [Compound I-128],> 300
22,CC(C)COCCc1c(C(=O)C[C@H](C)CC(=O)O)c2cc(Cl)ccc2n1C [Compound I-72],> 300
23,C[C@H](OCCCCc1c(C(=O)N2CC[C@H](C(=O)O)[C@H]2C)c2cc(C#N)cnc2n1C)c1ccccc1 [Compound I-454],> 300
24,COc1cccc(CCCCC#Cc2c(C(=O)CC(C)CC(=O)O)c3cc(C#N)cnc3n2C)c1 (centres unmarked) [Compound I-419],> 300
25,Cn1c(CCCCCCC#CC2CC(F)(F)C2)c(C(=O)N2CC[C@H](C(=O)NS(C)(=O)=O)C2)c2cc(C#N)cnc21 [Compound I-363],> 300

row,Compound,IC50 [nM]
1,CC(CC(=O)O)CC(=O)c1c(CCCCOCc2ccc(F)cc2)n(C)c2ncc(C#N)cc12 (centres unmarked) [Compound I-297],< 100
2,C[C@@H](CC(=O)c1c(CCCCOCc2ccccc2)n(C)c2ncc(C#N)cc12)Cc1nnn[nH]1 [Compound I-359],< 100
3,C[C@H](CC(=O)O)N(C)C(=O)c1c(CCCCOCc2cccc(Cl)c2)n(C)c2ncc(C#N)cc12 [Compound I-240],> 300
4,Cn1c(CCCCCCc2cccc(Cl)c2)c(CN2CC[C@H](C(=O)O)C2)c2cc(Cl)ccc21 [Compound I-303],> 300
5,CC(CC(=O)NS(C)(=O)=O)CC(=O)c1c(CCCCOCc2ccccc2)n(C)c2ncc(C#N)cc12 (centres unmarked) [Compound I-362],> 300
6,COc1cc(COCCCCc2c(C(=O)CC(C)CC(=O)O)c3cc(Cl)cnc3n2C)ccn1 (centres unmarked) [Compound I-446],> 300
7,CC[C@@H](CC(=O)O)CC(=O)c1c(CCCCOCc2ccccc2)n(C)c2ncc(C#N)cc12 [Compound I-439],> 300
8,CC(CNC(=O)c1c(CCCCCCc2cccc(Cl)c2)n(C)c2ccc(Cl)cc12)C(=O)O (centres unmarked) [Compound I-241],> 300
9,Cn1c(CCCCCCc2cccc(Cl)c2)c(C(=O)N2CC(CC(=O)O)C2)c2cc(Cl)cnc21 [Compound I-154],> 300
10,C[C@H](CC(=O)O)CC(=O)c1c(CCCCCNC(=O)C2CC2)n(C)c2ccc(Cl)cc12 [Compound I-127],> 300
11,C[C@H](CC(=O)O)CC(=O)c1c(CCCCCNc2cccnc2)n(C)c2ccc(Cl)cc12 [Compound I-141],> 300
12,CC(C)[C@H](NC(=O)C[C@@H](C)CC(=O)c1c(CCCCOCc2ccccc2)n(C)c2ncc(C#N)cc12)C(=O)O [Compound I-466],> 300
13,C[C@H](CC(=O)O)CC(=O)c1c(CCCCOCc2cccc(C#N)c2)n(C)c2ncc(Cl)cc12 [Compound I-212],< 100
14,CC(CC(=O)O)CC(=O)c1c(CCCCCCC=C=CC(F)(F)F)n(C)c2ccc(Cl)cc12 (centres unmarked) [Compound I-304],> 300
15,CC(CC(=O)O)CC(=O)c1c(CCCCOCc2cc(F)cc(F)c2)n(C)c2ncc(C#N)cc12 (centres unmarked) [Compound I-387],100 to 300
16,C[C@@H](CC(=O)O)CC(=O)c1c(CCCCOCc2ccccc2)n(C)c2ncc(C#N)cc12 [Compound I-106],> 300
17,Cn1c(CCCCCCC#CC2CC(F)(F)C2)c(C(=O)N2CC[C@H](c3nnn[nH]3)C2)c2cc(C#N)cnc21 [Compound I-354],< 100
18,Cn1c(CCCCOCc2cccc(Cl)c2)c(C(=O)N2CC[C@H](c3nnn[nH]3)C2)c2cc(C(F)(F)F)ccc21 [Compound I-188],100 to 300
19,Cc1nc2c(cc1C#N)c(C(=O)CC(C)CC(=O)O)c(CCCCOCc1cccc(Cl)c1)n2C (centres unmarked) [Compound I-381],> 300
20,CC(CC(=O)O)CC(=O)c1c(CCCC[S+]([O-])Cc2ccccc2)n(C)c2ncc(C#N)cc12 (centres unmarked) [Compound I-427],> 300
21,Cn1c(COCCCCC#CC2CC(F)(F)C2)c(C(=O)N2CC[C@H](C(=O)O)C2)c2cc(Cl)ccc21 [Compound I-349],> 300
22,CC(CC(=O)O)CC(=O)c1c(CCCCCCC#CC2COC2)n(C)c2ccc(Cl)cc12 (centres unmarked) [Compound I-321],< 100
23,Cn1c(CCCCOCc2cccc(Cl)c2)c(C(=O)N2CC[C@H](C(=O)O)C2)c2cc(Cl)cnc21 [Compound I-175],> 300
24,CC(CC(=O)O)CC(=O)c1c(CCOCCNc2cccc(F)c2)n(C)c2ncc(C#N)cc12 (centres unmarked) [Compound I-296],100 to 300

# From patent US20250154145A1, “OXER1 ANTAGONISTS AND USES THEREOF” (Fairhaven Pharmaceuticals Ins., priority 2021, published 2025)
